Data set [1] concerns Embryonic kidney HEK293 cells. Kind of data set: MTT assay, noncancerous cell line. It is filed as cell-based, human. As to conditions: 72 h; for IC50: HEK293 noncancerous cells, MTT; for SI (selectivity index): IC50 in noncancerous HEK293 cells / average IC50 in cancer cells. Here is the method: As one of the main drawbacks of chemotherapeutics is the toxic effect toward noncancerous cells, we measured the cytotoxicity of tested complexes against a noncancerous cell line (HEK293) and calculated the selectivity index (SI, defined as the ratio between the IC50 value in noncancerous cells and the corresponding average IC50 value related to cancer cells; Table 5).
Compounds [2B]BF4, [2C]CF3SO3, [2D]CF3SO3 and [3F]CF3SO3 were dissolved in water while the other compounds were dissolved in the minimum DMSO amount prior to cell culture testing. A calculated amount of the stock drug DMSO solution was added to the cell culture media to reach a final maximum DMSO concentration of 0.5 %, which had no effects on cell viability.
Cell cultures. Human colon (HCT‐15), pancreatic (PSN‐1) and breast (MCF‐7) carcinoma cell lines along with human melanoma cells (A375) were obtained from American Type Culture Collection (ATCC, Rockville, MD). Embryonic kidney HEK293 cells were obtained from the European Collection of Cell Cultures (ECACC, Salisbury, UK). Human ovarian 2008 cancer cells were kindly provided by Prof. G. Marverti (Dept. of Biomedical Science of Modena University, Italy). MCF‐7 ADR cells were kindly provided by Prof. N. Colabufo (Dept. Pharmacy, University of Bari, Italy). Cell lines were maintained in the logarithmic phase at 37 °C in a 5 % CO2 atmosphere using the following culture media containing 10 % fetal calf serum (Euroclone, Milan, Italy), antibiotics (50 units/mL penicillin and 50 μg/mL streptomycin) and 2 mM L‐glutamine: i) RPMI‐1640 medium (Euroclone, Milan, Italy) for PSN‐1, 2008, HCT‐15, MCF‐7 and MCF‐7 ADR cells; ii) DMEM for A375 and HEK293 cells.
(§1) MTT assay. The growth inhibitory effect towards tumour cells was evaluated by means of MTT assay as previously described.[57] Briefly, 3–8×10^3 cells/well, dependent upon the growth characteristics of the cell line, were seeded in 96‐well microplates in growth medium (100 μL). After 24 h, the medium was removed and replaced with a fresh one containing the compound to be studied at the appropriate concentration. Triplicate cultures were established for each treatment. After 24 or 72 h, each well was treated with 10 μL of a 5 mg/mL MTT saline solution, and following 5 h of incubation, 100 μL of a sodium dodecyl sulfate (SDS) solution in HCl 0.01 M were added. After an overnight incubation, cell growth inhibition was detected by measuring the absorbance of each well at 570 nm using a Bio‐Rad 680 microplate reader. Mean absorbance for each drug dose was expressed as a percentage of the control untreated well absorbance and plotted against drug concentration. IC50 values, the drug concentrations that reduce the mean absorbance at 570 nm to 50 % of those in the untreated control wells, were calculated by the four‐parameter logistic (4‐PL) model. Evaluation was based on means from at least four independent experiments.
(In general: Tetrazolium dyes change colour on reduction, which living cells bring about.)

A short description of data set [2]: Carbon monoxide release in 5 % MeOH aqueous solution, headspace GC-TCD. It is filed as physicochemical. The conditions noted are these: 37 °C; for eq. CO released: eqCO = nCO/nFe; for % residual complex: 48 h, calculated as [1 – Σ(eqCO)/3]∙100. How it is done: Carbon monoxide release. A stock solution was prepared by dissolving the selected Fe compound (ca. 10 mg) in MeOH (0.50 mL) then diluting with H2O up to 10.0 mL total volume (5 % v/v MeOH). Next, 3.20 mL of the solution (n Fe ca. 6 ⋅ 10^−3 mmol) and a 7x2 mm stir bar were transferred into a 4‐mL screw top vial (1.72 mL neat gas phase volume). The mixture was sealed with a screw cap with a PTFE/silicone septum and heated at 37 °C for 24 h under stirring. Afterwards, the headspace was sampled with a gas tight microsyringe ([…]) and analysed by GC‐TCD. Therefore, the vial was vented, sealed and heated for further 24 h, and GC‐TCD analysis was repeated. The amount of released CO (νCO, mmol) was calculated based on a calibration curve obtained from analyses of known air/CO mixtures (1–10 % v/v), and the number of equivalents released over a 24 h period refers to the initial amount of compound (eqCO=n CO/n Fe). The residual amount of starting diiron complex after 48 h was calculated by assuming the release of 3 equivalents of CO per mole and the total amount of CO released.

The subject of data set [3] is thioredoxin reductase (TrxR). The conditions noted are these: cell-free experiment (data not shown). From the text:
It has recently emerged that the redox stress induced by some iron complexes might also be attributed to their ability to inhibit the selenoenzyme thioredoxin reductase (TrxR).

The subject of data set [4] is human cancer cell line panel (2008, HCT‐15, PSN‐1, MCF‐7, A375). Kind of data set: MTT assay, average over the human cancer cell line panel. It counts as cell-based. The conditions noted are these: average over tested cancer cell lines, 72 h. How it is done:
The diiron complexes [2A]^+, [2C–E]^+, [3F–G]^+, [5H]^+ (as CF3SO3 salts) and [2B]^+, [4G]^+ (as BF4 salts) were tested for their cytotoxic potential by means of the MTT assay, as reported in the Experimental Section. The most convenient counter anion in terms of preparation and handling/storage was chosen in each case; in particular, [2C]CF3SO3 was included in the study, while [2C]Cl was excluded, being highly moisture sensitive and thus affecting the accuracy of the weighting operation. The in‐house human cancer cell line panel contains examples of ovarian (2008), colon (HCT‐15), pancreatic (PSN‐1), and breast (MCF‐7) cancers as well as of melanoma (A375). Cisplatin was used as a reference and tested under the same experimental conditions. In addition, the cytotoxicity was also evaluated for shorter time of exposure (24 h) towards PSN‐1 cancer cells (Table S5).
as §1

On to “[Fe2Cp2(CO)2(μ‐CO){μ‐CNEt(2‐naphthyl)}]BF4 [[4G]BF4]”, for which, in data set [1], the IC50 worked out at 89.5 ± 4.5 µM and the “SI (selectivity index)” value came to 3.3.
Substance “[Fe2Cp2(CO)2(μ‐CO){μ‐CNBn2}]X [[5H]CF3SO3]” registered an IC50 in data set [1] of 98.3 ± 4.2 µM. Moreover, the “SI (selectivity index)” value in data set [1] came to 2.8. The figures for the “eq. CO released” value in data set [2] (0-24 h) and in data set [2] (24-48 h) were 0.29 ± 0.06 eq and 0.27 ± 0.02 eq, respectively. Further, the “% residual complex” value in data set [2] was 80-84%.
Consider “[Fe2Cp2(CO)2(μ‐CO){μ‐CNMe(1H‐indol‐6‐yl)}]CF3SO3 [[2A]CF3SO3]”, for which, in data set [1], the IC50 came out at 136 ± 6.4 µM and the “SI (selectivity index)” value is 2.3.
For the substance “[Fe2Cp2(CO)2(μ‐CO){μ‐CNMe(4‐C6H4OMe)}]CF3SO3 [[2D]CF3SO3]”, in data set [3], the TrxR inhibition result was “completely ineffective”. In data set [1], inhibition was half-maximal at 94.3 ± 6.1 µM (IC50) and the “SI (selectivity index)” value stood at 5.6. Besides, the IC50 in data set [4] turned out to be 16.6 µM.
Turning to “[Fe2Cp2(CO)2(μ‐CO){μ‐CNMe(CH2CHCH2)}]X [[3F]CF3SO3]”, the half-inhibitory concentration (IC50) in data set [1] and in data set [4] was above 100 µM in each case. Moreover, the “eq. CO released” value in data set [2] (0-24 h) is given as 0.22 ± 0.06 eq; in data set [2] (24-48 h) it was 0.15 ± 0.01 eq. The “% residual complex” value in data set [2] is 87-88%.
As to “[Fe2Cp2(CO)2(μ‐CO){μ‐CNMe(C6H11)}]X [[2C]CF3SO3]”, the TrxR inhibition entry in data set [3] is reported as “completely ineffective”. Also, the IC50 in data set [1] stood at 62.5 ± 4.9 µM; in data set [4] it was 17.4 µM. Moreover, in data set [1], the “SI (selectivity index)” value stood at 3.6. For the same substance, the “eq. CO released” value in data set [2] (0-24 h) is listed as 0.25 ± 0.02 eq; in data set [2] (24-48 h), 0.23 ± 0.04 eq. In addition, the “% residual complex” value in data set [2] is 83-86%.
“[Fe2Cp2(CO)2(μ‐CO){μ‐CNMe(CH2PO3Et2)}]X [[2B]BF4]”: the IC50 in data set [1] and in data set [4] was above 100 µM throughout.

What is called IC50 is the midpoint of a concentration-inhibition curve. A high value points to weaker potency.
